How the values were obtained:
Type in all cases: in vivo
[1] = body weight in mouse model of severe type 2 diabetes and obesity; conditions: after 9 days of treatment; FIG. 8
Method: (§1) Fed blood glucose levels were measured over a period of 28 days. Fasting glucose levels were measured on days 19, 29, and 30. Glucose clearance was measured using the glucose tolerance test on days 29 and 30. Body weight was also measured as compounds may regulate the expression of genes that are involved in obesity.

[2] = test system: leptin receptor deficient transgenic mouse model (db/db); assay: blood glucose levels in mouse model of severe type 2 diabetes and obesity; conditions: for blood glucose levels: mouse model of severe type 2 diabetes and obesity, FIG. 5 (Formula (I), 11 days), FIG. 7 (Formula (II), 19 days or 29-30 days)
Method: as §1

[3] = test system: leptin receptor deficient transgenic mouse model (db/db); assay: liver enzymes (ALT and AST) in blood serum, mouse model of Type 2 diabetes and severe obesity; conditions: after 29-30 days; FIG. 11

SMILES	body weight [1]	fed and fasting glucose levels ([2]; after 11 days of treatment, FIG. 5)	blood glucose levels [2]	lowering of enzymes (ALT and AST) associated with liver disease measured in blood serum [3] [%]
CN(C)c1ccc(C(=O)NCCCCCC(=O)NO)cc1 [Formula (III)]	significantly decrease body weight			
O=C(O)c1ccnc(C(=O)O)c1 [Formula (I), 2,4-pyridinedicarboxylic acid]		decrease in fed and fasting glucose levels	significantly decrease blood glucose levels	68
O=C(O)CCNc1cc(N2CCc3ccccc3CC2)nc(-c2ccccn2)n1 [Formula (II)]			significantly decrease blood glucose levels	
